The results in this text go back to ChEMBL document CHEMBL1157199, “Effects of modifications of the linker in a series of phenylpropanoic acid derivatives: Synthesis, evaluation as PPARalpha/gamma dual agonists, and X-ray crystallographic studies” (Bioorg Med Chem, 2008).

The source made the active and inactive calls. No cut-off for these calls is given here.

Series [1] is described as follows: Volume of distribution at steady state in Sprague-Dawley rat plasma after 24 hrs. It counts as ADME, organism-based. The conditions noted are these: read-out: Vdss.
The nature of series [2]: Half life in Sprague-Dawley rat plasma at 1 mg/kg, iv after 24 hrs. It is filed as ADME, organism-based. Set-up: dose 1 mg/kg, route intravenous.
The nature of series [3]: Clearance in Sprague-Dawley rat plasma after 24 hrs. It is filed as ADME, organism-based.
The nature of series [4]: Bioavailability in Sprague-Dawley rat plasma at 5 mg/kg, po after 24 hrs. It is filed as ADME, organism-based.
Series [5] can be described thus: AUC in Sprague-Dawley rat plasma at 5 mg/kg, po after 24 hrs. Set-up: time < 24 hr, dose 5 mg/kg, route oral. It is filed as ADME, organism-based.
For series [6], the system named is Mus musculus. As to the kind of experiment: Antihyperglycemic effect in ob/ob B6.V-Lepob/J mouse assessed as reduction in blood glucose level at 20 mg/kg once daily after 14 days relative to control. It is filed as functional. Set-up: scale not given: the % may be the effect or the level left.
The species named for series [7] is Mus musculus. Put plainly: Antihyperglycemic effect in ob/ob B6.V-Lepob/J mouse assessed as reduction in plasma glucose level after 14 days relative to control. It is filed as functional, organism-based.
For series [8], the target named is T1, Peroxisome proliferator-activated receptor alpha (Homo sapiens, UniProt Q07869).
T1 sequence (Q07869 whole entry): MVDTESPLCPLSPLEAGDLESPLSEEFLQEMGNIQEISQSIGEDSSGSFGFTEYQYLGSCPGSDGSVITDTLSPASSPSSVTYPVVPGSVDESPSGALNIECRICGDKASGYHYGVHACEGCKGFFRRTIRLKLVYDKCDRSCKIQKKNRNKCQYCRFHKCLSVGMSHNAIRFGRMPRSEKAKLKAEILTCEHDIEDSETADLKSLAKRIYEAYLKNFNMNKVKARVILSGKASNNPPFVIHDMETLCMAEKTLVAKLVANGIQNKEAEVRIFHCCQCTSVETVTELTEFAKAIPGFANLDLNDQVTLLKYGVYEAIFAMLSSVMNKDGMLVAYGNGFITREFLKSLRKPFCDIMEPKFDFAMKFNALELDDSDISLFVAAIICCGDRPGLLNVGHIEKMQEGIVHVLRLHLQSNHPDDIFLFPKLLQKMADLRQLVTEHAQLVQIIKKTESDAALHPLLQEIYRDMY

The nature of series [9]: Half life in Sprague-Dawley rat plasma at 5 mg/kg, iv after 24 hrs. It is filed as ADME, organism-based. Also on record: dose 5 mg/kg, route intravenous.
The test system of series [10] is Rattus norvegicus. Put plainly: Decrease in fasting serum triglyceride level in Zucker diabetic fa/fa rat at 10 mg/kg, po. It is filed as functional. Set-up: scale not given: the % may be the effect or the level left.
In series [11] the test system is Rattus norvegicus. Put plainly: Increase in high density lipoprotein level in Zucker diabetic fa/fa rat at 10 mg/kg, po. It counts as functional.
Series [12] has as its system Rattus norvegicus. As to the kind of experiment: Reduction of plasma glucose level in Zucker diabetic fa/fa rat at 10 mg/kg, po. It counts as functional. Also on record: scale not given: the % may be the effect or the level left.

`Cc1oc(-c2ccccc2)nc1C/C=C/c1ccc(C[C@@H](C(=O)O)n2cccc2)cc1`: the Vd in [1] stood at 0.408 L/kg. In addition, in series [2], the half-life (commonly how long it takes for the measured level to halve) is 5.6 h. Moreover, the clearance (as a rule, the rate of elimination divided by the concentration) in series [3] worked out at 0.9 mL/min/kg. In addition, in [4], the bioavailability (as a rule, the share of a dose that reaches the circulation, judged against a reference dose that is usually intravenous) came to 62%. The AUC (usually concentration integrated over time) at 24 h in series [5] amounted to 55400 ng·h/mL. Besides, in the series on Mus musculus [6], the Activity is recorded as 71%. Moreover, in the series filed under Mus musculus [7], the outcome was Active.

In the case of `Cc1oc(-c2ccccc2)nc1CC#Cc1ccc(CC(C(=O)O)c2cccnc2)cc1` (racemic), it took 16 µM to reach a half-maximal effect in series [8] (EC50).

For `CN(C/C=C/c1ccc(C[C@@H](C(=O)O)n2cccc2)cc1)c1ccccc1`, the EC50 – broadly, the concentration at which the effect is half-maximal – in series [8] was above 30 µM.

Consider `Cc1oc(-c2ccccc2)nc1CCCc1ccc(C[C@@H](C(=O)O)n2cccc2)cc1`, for which, in series [1], the Vd stood at 1.06 L/kg. Besides, the clearance in series [3] turned out to be 5.3 mL/min/kg. The same molecule showed a bioavailability in series [4] of 50%. The molecule further showed an AUC at 24 h in series [5] of 8650 ng·h/mL. Moreover, in the series with Mus musculus [6], the Activity amounted to 70%. In series [9], this molecule had a half-life of 8.4 h. In addition, the outcome in the series listed under Mus musculus [7] was Active.

For the molecule `Cc1oc(-c2ccccc2)nc1CCOc1ccc(C[C@@H](C(=O)O)n2cccc2)cc1`, the Activity in the series on Rattus norvegicus [10] is 24%; with Rattus norvegicus [11], 31%; in the series on Rattus norvegicus [12], 40%.

Regarding `Cc1oc(-c2ccccc2)nc1CC#Cc1ccc(CC(C(=O)O)c2ccc(-c3ccccc3)cc2)cc1` (racemic), in series [8], the EC50 stood at 4 µM.

Molecule `CC(=O)N(Cc1ccc(C[C@@H](C(=O)O)n2cccc2)cc1)Cc1nc(-c2ccccc2)oc1C` displayed an EC50 in [8] above 30 µM.

In the case of `CN(CC#Cc1ccc(C[C@@H](C(=O)O)n2cccc2)cc1)c1ccccc1`, the EC50 in series [8] was above 100 µM.

For the molecule `Cc1oc(-c2ccccc2)nc1CN(C)Cc1ccc(C[C@@H](C(=O)O)n2cccc2)cc1`, in series [8], the EC50 was found to be 12 µM.

Take `Cc1oc(-c2ccccc2)nc1CC#Cc1ccc(CC(C(=O)O)c2cccc(-c3ccccc3)c2)cc1` (racemic): the EC50 in series [8] was determined as 2.8 µM.

In turn, `CN(CC#Cc1ccc(CC(C(=O)O)n2cccc2)cc1)c1ccccn1` (racemic) returned an EC50 in series [8] above 100 µM.

`Cc1oc(-c2ccccc2)nc1CCNc1ccc(C[C@@H](C(=O)O)n2cccc2)cc1`: in the series with Mus musculus [6], the outcome was inactive.

In series [8], `CN(C/C=C/c1ccc(C[C@@H](C(=O)O)n2cccc2)cc1)c1ccccn1` showed an EC50 of 29 µM.

`Cc1oc(-c2ccccc2)nc1CNCc1ccc(C[C@@H](C(=O)O)n2cccc2)cc1` gave an EC50 in [8] above 30 µM.
